Measured values reported in PMC9020084 (iScience, 2022).

Legend:
Assay type in all cases: biochemical
SHIP1-Enz (S1-Enz) = target: T1, SHIP1-Enz (S1-Enz) (Homo sapiens, UniProt Q92835); assay: fluorescence polarization PI
T1 sequence (Q92835 397-864): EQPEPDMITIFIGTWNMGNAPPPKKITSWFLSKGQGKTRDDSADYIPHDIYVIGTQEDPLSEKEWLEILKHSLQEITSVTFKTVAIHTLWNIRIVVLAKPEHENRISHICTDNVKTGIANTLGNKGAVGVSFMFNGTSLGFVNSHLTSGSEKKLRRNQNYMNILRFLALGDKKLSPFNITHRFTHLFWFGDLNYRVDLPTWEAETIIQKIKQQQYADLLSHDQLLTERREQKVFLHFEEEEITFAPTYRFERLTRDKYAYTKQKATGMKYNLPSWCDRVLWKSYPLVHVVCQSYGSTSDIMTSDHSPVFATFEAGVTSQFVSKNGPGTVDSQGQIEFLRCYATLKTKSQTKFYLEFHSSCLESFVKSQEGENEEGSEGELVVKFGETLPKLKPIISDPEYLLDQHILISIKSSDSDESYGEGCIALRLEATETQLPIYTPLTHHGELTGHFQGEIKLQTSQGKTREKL

SHIP2-Enz (S2-Enz) = target: T2, SHIP2-Enz (S2-Enz) (Homo sapiens, UniProt O15357); assay: fluorescence polarization PI
T2 sequence (O15357 414-872): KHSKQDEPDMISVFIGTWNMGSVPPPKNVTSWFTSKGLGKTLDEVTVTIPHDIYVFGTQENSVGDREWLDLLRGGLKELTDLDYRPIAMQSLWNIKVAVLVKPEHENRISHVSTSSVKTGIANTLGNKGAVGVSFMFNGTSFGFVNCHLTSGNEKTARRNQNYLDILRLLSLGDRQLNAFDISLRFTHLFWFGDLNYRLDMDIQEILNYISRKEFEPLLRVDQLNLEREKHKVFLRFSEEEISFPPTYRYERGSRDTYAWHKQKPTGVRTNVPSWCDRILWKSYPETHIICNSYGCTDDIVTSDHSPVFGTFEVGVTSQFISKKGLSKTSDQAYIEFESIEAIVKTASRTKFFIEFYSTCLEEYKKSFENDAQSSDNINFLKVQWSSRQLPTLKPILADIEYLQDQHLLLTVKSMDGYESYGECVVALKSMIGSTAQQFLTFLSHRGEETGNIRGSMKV

SHIP1ΔC2 (S1ΔC2) = target: T3, SHIP1ΔC2 (S1ΔC2) (Homo sapiens, UniProt Q92835); assay: malachite green phosphate release; conditions: agonist (activation); C2 domain deleted
T3 sequence (Q92835 397-730): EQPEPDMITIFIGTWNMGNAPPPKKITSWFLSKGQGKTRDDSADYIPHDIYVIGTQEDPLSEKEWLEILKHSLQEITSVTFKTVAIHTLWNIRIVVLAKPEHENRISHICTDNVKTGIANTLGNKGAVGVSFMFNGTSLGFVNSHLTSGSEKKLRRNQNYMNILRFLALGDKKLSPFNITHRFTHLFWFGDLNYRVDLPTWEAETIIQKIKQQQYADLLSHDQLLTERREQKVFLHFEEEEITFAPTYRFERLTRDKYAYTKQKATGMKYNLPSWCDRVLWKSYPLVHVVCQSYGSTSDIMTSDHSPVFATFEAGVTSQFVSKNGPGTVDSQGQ

For Cc1sc(S(=O)(=O)N2CCSCC2)cc1NC(=O)CNS(=O)(=O)c1ccc(F)cc1 [compound 8, K306], the EC50 (SHIP1-Enz (S1-Enz)) was 0.119 µM, the EC50 (SHIP2-Enz (S2-Enz)) was 1.17 µM and the “malachite green phosphate release” value (SHIP1ΔC2 (S1ΔC2)) was “K306 retained significant agonistic activity for SHIP1ΔC2”.
